Laboratory results published in patent US12139487B2, “Compounds and uses thereof” (Foghorn Therapeutics Inc., priority 2022, dated 2024).

Tests used:
BRG-1 = biological target: T1, BRG-1 (Homo sapiens, UniProt P51532); assay: ATPase catalytic activity assay (ADP-Glo), BRG-1; type: biochemical; details: Table 10, read-out: BRG1 IC50
T1 construct: made in house; host or cells: High Five insect cells
Procedure: The ATPase catalytic activity of BRM or BRG-1 was measured by an in vitro biochemical assay using ADP-Glo™ (Promega, V9102). The ADP-Glo™ kinase assay is performed in two steps once the reaction is complete. The first step is to deplete any unconsumed ATP in the reaction. The second step is to convert the reaction product ADP to ATP, which will be utilized by the luciferase to generate luminesce and be detected by a luminescence reader, such as Envision.
Then, following addition of 5 μL of ADP-Glo™ Reagent provided in the kit, the reaction incubates at room temperature for 40 minutes. Then, 10 μL of Kinase Detection Reagent provided in the kit is added to convert ADP to ATP, and the reaction incubates at room temperature for 60 minutes. Finally, luminescence measurement is collected with a plate-reading luminometer, such as Envision.

[1] = test system: BRM-dependent transcription (BRG1 mutant lung cancer cell line A549); assay: BRM-dependent transcription, MMTV luciferase reporter in BRG1 mutant A549 cells; type: cell-based; details: Table 11; for IC50: A549-MMTV luciferase reporter, dexamethasone induced, 6 hours; for Ratio (MDA-MMTV IC50 (μM) divided by A549-MMTV IC50 (μM)): MMTV luciferase reporter cell lines, selectivity BRG1/BRM
In short: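 A549 (BRG1-mutant) cells engineered with a BRM-dependent MMTV luciferase reporter; transcription induced with dexamethasone in presence of compound at various concentrations. Luminescence read 6 h after stimulation.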

T1 sequence (P51532 whole entry): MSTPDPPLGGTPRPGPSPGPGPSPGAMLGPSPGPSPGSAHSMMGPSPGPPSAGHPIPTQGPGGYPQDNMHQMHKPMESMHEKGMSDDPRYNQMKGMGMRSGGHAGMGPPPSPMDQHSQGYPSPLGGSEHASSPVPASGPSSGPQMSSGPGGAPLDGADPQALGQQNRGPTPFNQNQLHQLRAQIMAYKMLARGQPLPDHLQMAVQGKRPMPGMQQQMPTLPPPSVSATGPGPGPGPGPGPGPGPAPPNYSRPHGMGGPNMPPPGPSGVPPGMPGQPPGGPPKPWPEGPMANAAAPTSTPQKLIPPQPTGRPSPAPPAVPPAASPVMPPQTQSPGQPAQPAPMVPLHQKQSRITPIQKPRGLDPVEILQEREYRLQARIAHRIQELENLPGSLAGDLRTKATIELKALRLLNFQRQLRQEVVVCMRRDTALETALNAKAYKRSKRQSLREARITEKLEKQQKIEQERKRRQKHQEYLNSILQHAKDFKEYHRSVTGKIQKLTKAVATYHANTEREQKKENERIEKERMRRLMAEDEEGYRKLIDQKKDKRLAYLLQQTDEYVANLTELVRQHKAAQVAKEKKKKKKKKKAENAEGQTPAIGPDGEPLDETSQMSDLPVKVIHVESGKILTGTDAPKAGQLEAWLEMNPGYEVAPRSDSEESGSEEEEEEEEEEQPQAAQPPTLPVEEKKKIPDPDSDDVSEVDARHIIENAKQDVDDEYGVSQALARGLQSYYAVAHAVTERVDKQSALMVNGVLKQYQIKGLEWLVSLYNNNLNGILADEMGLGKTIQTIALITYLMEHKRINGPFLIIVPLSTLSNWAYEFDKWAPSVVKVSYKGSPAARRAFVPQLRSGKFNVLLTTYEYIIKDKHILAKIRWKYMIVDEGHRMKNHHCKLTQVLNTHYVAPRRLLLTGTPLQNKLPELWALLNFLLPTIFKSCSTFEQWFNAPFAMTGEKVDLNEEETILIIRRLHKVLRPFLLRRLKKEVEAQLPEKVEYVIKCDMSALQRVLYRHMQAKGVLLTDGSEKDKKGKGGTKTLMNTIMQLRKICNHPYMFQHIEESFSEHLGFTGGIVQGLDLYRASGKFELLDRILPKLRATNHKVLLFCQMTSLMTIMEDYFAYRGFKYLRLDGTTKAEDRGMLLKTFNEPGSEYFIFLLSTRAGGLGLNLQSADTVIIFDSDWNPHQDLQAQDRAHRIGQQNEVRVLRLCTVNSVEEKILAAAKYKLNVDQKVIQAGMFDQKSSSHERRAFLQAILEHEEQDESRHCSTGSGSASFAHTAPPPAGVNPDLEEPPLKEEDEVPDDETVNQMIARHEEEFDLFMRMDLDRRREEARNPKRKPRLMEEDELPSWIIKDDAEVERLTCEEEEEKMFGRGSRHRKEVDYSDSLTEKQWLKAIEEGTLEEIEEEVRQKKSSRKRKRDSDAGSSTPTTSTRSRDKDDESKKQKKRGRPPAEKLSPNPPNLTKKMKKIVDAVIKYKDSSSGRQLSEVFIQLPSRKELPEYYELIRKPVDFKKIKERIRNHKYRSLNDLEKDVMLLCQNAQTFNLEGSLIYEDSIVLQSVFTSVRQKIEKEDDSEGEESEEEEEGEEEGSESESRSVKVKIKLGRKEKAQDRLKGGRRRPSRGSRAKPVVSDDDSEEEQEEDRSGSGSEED

Row | IC50 (BRG-1) [nM] | IC50 ([1]; Homo sapiens, A549, 6 h) [nM] | Ratio (MDA-MMTV IC50 (μM) divided by A549-MMTV IC50 (μM)) [1] | IC50 [1] [nM] | Structure (SMILES)
1 | 21.3 |  |  |  | Cc1cnc2c(c1)OCCN2c1ccc2cnc(CNC(=O)c3cc(F)c4c(c3)S(=O)(=O)[C@@H](F)COC4)cc2n1 [Compound 6, (R)-2,6-difluoro-N-((2-(7-methyl-2,3-dihydro-4H-pyrido[3,2-b][1,4]oxazin-4-yl)-1,6-naphthyridin-7-yl)methyl)-2,3-dihydro-5H-benzo[e][1,4]oxathiepine-8-carboxamide 1,1-dioxide]
2 | 17.9 |  |  |  | O=C(NCc1cc2nc(N3CCOc4cc(N5CC(F)C5)cnc43)ccc2cn1)c1ccc2c(c1)S(=O)(=O)[C@@H](F)CCOC2 [Compound 7]
3 | 44 |  |  |  | C[C@@H]1OC[C@H](F)S(=O)(=O)c2cc(C(=O)NCc3cc4nc(N5CCOc6cc(C7CC7)cnc65)ccc4cn3)ccc21 [Compound 49]
4 | 39 |  |  |  | CCO[C@@H]1CCN(c2cccc(-c3ccc4cnc(CNC(=O)c5cc(F)c6c(c5)S(=O)(=O)[C@@H](F)CCO6)cc4n3)n2)C1 [Compound 92]
5 | 42.3 |  |  |  | COCCOc1ccc2c(c1)OCCN2c1ccc2cnc(CNC(=O)c3cc(F)c4c(c3)S(=O)(=O)[C@@H](F)CCO4)cc2n1 [Compound 93]
6 | 58.6 |  |  |  | CCOc1ccnc2c1OCCN2c1ccc2cnc(CNC(=O)c3cc(Cl)c4c(c3)S(=O)(=O)[C@@H](F)CCO4)cc2n1 [Compound 94]
7 |  | 13.4 | 53.94 |  | COc1ccc(-c2ccc3cnc(CNC(=O)c4cc(Br)c5c(c4)S(=O)(=O)[C@@H](F)COC5)cc3n2)nc1C1CC1 [Compound 487]
8 |  | 7.9 | 26.53 |  | O=C(NCc1cc2nc(-c3ccc(C(F)F)nc3OCC3CC3)ccc2cn1)c1cc(F)c2c(c1)S(=O)(=O)[C@@H](F)COC2 [Compound 488]
9 |  | 11.8 | 35.95 |  | [2H]C([2H])([2H])C([2H])([2H])Oc1nc([C@@H](F)CF)ccc1-c1ccc2cnc(CNC(=O)c3cc(Br)c4c(c3)S(=O)(=O)[C@@H](F)COC4)cc2n1 [Compound 489]
10 |  | 7.9 | 26.59 |  | O=C(NCc1cc2nc(-c3ccc([C@H](F)C(F)F)c(C4CC4)n3)ccc2cn1)c1cc(C(F)F)c2c(c1)S(=O)(=O)[C@@H](F)COC2 [Compound 490]
11 |  | 18.2 | 23.59 |  | O=C(NCc1cc2nc(-c3ccc([C@H](F)C(F)F)c(C4CC4)n3)ccc2cn1)c1cc(Cl)c2c(c1)S(=O)(=O)[C@@H](F)COC2 [Compound 491]
12 |  | 16.6 | 24.09 |  | O=C(NCc1cc2nc(-c3ccc([C@H](F)C(F)F)c(C4CC4)n3)ccc2cn1)c1cc(Br)c2c(c1)S(=O)(=O)[C@@H](F)COC2 [Compound 492]
13 |  | 19.4 | 49.65 |  | [2H]C([2H])([2H])Oc1ccc(-c2ccc3cnc(CNC(=O)c4cc(Br)c5c(c4)S(=O)(=O)[C@@H](F)COC5)cc3n2)nc1[C@H]1CC1(F)F [Compound 493]
14 |  | 5.7 | 28.82 |  | COCCCOc1cnc2c(c1)OCCN2c1ccc2cnc(CNC(=O)c3cc(C(F)F)c4c(c3)S(=O)(=O)[C@@H](F)COC4)cc2n1 [Compound 494]
15 |  | 15.1 | 32.03 |  | [2H]C([2H])([2H])C([2H])([2H])Oc1nc(C(F)F)ccc1-c1ccc2cnc(CNC(=O)c3cc(Cl)c4c(c3)S(=O)(=O)[C@@H](F)COC4)cc2n1 [Compound 495]
16 |  |  | 21.18 | 1.6 | C[C@@H]1CCN1c1cnc2c(-c3ccc4cnc(CNC(=O)c5cc(F)c6c(c5)S(=O)(=O)[C@@H](F)COC6)cc4n3)cccc2c1 [Compound 496]
17 |  |  | 29.41 | 12.4 | C[C@@H]1CCN1c1cnc2c(-c3ccc4cnc(CNC(=O)c5cc(Cl)c6c(c5)S(=O)(=O)[C@@H](F)COC6)cc4n3)cccc2c1 [Compound 497]
18 |  |  | 38.20 | 5.9 | C[C@@H]1CCN1c1cnc2c(-c3ccc4cnc(CNC(=O)c5cc(Cl)c6c(c5)S(=O)(=O)[C@@H](F)COC6)cc4n3)cccc2c1 [Compound 498]
19 |  | 15 | 24.97 |  | [2H]C([2H])([2H])C([2H])([2H])Oc1nc(C(C)(F)F)ccc1-c1ccc2cnc(CNC(=O)c3cc(Cl)c4c(c3)S(=O)(=O)[C@@H](F)COC4)cc2n1 [Compound 499]
20 |  | 7.7 | 21.12 |  | [2H]C([2H])([2H])OC([2H])([2H])C([2H])([2H])Oc1cnc2c(c1)OCCN2c1ccc2cnc(CNC(=O)c3cc(C(F)F)c4c(c3)S(=O)(=O)[C@@H](F)COC4)cc2n1 [Compound 500]

Row | IC50 (BRG-1) [nM] | IC50 ([1]; Homo sapiens, A549, 6 h) [nM] | Ratio (MDA-MMTV IC50 (μM) divided by A549-MMTV IC50 (μM)) [1] | IC50 [1] [nM] | Structure (SMILES)
21 |  | 13 | 30.55 |  | CCOc1nn(-c2ccc3cnc(CNC(=O)c4cc(C(F)F)c5c(c4)S(=O)(=O)[C@@H](F)COC5)cc3n2)cc1F [Compound 501]
22 |  | 9.6 | 38.00 |  | [2H]C([2H])([2H])[C@@]([2H])(F)c1ccc(-c2ccc3cnc(CNC(=O)c4cc(Br)c5c(c4)S(=O)(=O)[C@@H](F)COC5)cc3n2)c(OC)n1 [Compound 502]
23 |  | 17.3 | 33.25 |  | O=C(NCc1cc2nc(-c3cccc4c3OC(F)(F)O4)ccc2cn1)c1cc(C(F)F)c2c(c1)S(=O)(=O)[C@@H](F)COC2 [Compound 503]
24 |  | 10.6 | 21.63 |  | CCOc1nc(C(F)F)ncc1-c1ccc2cnc(CNC(=O)c3cc(Cl)c4c(c3)S(=O)(=O)[C@@H](F)COC4)cc2n1 [Compound 505]
25 |  | 10.2 | 42.09 |  | [2H]C([2H])([2H])Oc1ccc(-c2ccc3cnc(CNC(=O)c4cc(Cl)c5c(c4)S(=O)(=O)[C@@H](F)COC5)cc3n2)nc1C1CC1(F)F (stereo partly drawn) [Compound 506]
26 |  |  | 30.86 | 13.5 | [2H]C([2H])([2H])Oc1ccc(-c2ccc3cnc(CNC(=O)c4cc(Cl)c5c(c4)S(=O)(=O)[C@@H](F)COC5)cc3n2)nc1C1CC1(F)F (stereo partly drawn) [Compound 507]
27 |  | 11.5 | 21.72 |  | COCCOc1nn(-c2ccc3cnc(CNC(=O)c4cc(F)c5c(c4)S(=O)(=O)[C@@H](F)COC5)cc3n2)cc1F [Compound 508]
28 |  |  | 25.33 | 20.2 | CCOc1nc(C(C)(F)F)ccc1-c1ccc2cnc(CNC(=O)c3cc(F)c4c(c3)S(=O)(=O)[C@@H](F)COC4)cc2n1 [Compound 509]
29 |  | 14.6 | 22.06 |  | CCOc1nc(C(F)F)ncc1-c1ccc2cnc(CNC(=O)c3cc(C(F)F)c4c(c3)S(=O)(=O)[C@@H](F)COC4)cc2n1 [Compound 510]
30 |  | 10 | 23.26 |  | COCCOc1nn(-c2ccc3cnc(CNC(=O)c4cc(Cl)c5c(c4)S(=O)(=O)[C@@H](F)COC5)cc3n2)cc1F [Compound 512]
31 |  | 13.7 | 27.47 |  | COCCOc1cnc2c(-c3ccc4cnc(CNC(=O)c5cc(Cl)c6c(c5)S(=O)(=O)[C@@H](F)COC6)cc4n3)cccc2c1 [Compound 513]
32 |  | 21 | 32.01 |  | O=C(NCc1cc2nc(-n3cc(F)c(OC(F)F)n3)ccc2cn1)c1cc(C(F)F)c2c(c1)S(=O)(=O)[C@@H](F)COC2 [Compound 514, (2R)—N-[[2-[3-(difluoromethoxy)-4-fluoro-pyrazol-1-yl]-1,6-naphthyridin-7-yl]methyl]-6-(difluoromethyl)-2-fluoro-1,1-dioxo-3,5-dihydro-2H-4,1benzoxathiepine-8-carboxamide]
33 |  |  | 23.82 | 16.7 | CCOc1nc([C@@H](F)CF)ccc1-c1ccc2cnc(CNC(=O)c3cc(C(F)F)c4c(c3)S(=O)(=O)[C@@H](F)COC4)cc2n1 [Compound 515]
34 |  |  | 31.51 | 12.1 | CCOc1nc([C@@H](F)CF)ccc1-c1ccc2cnc(CNC(=O)c3cc(Cl)c4c(c3)S(=O)(=O)[C@@H](F)COC4)cc2n1 [Compound 516]
35 |  |  | 35.51 | 20.4 | CCOc1nc([C@@H](F)CF)ccc1-c1ccc2cnc(CNC(=O)c3cc(Br)c4c(c3)S(=O)(=O)[C@@H](F)COC4)cc2n1 [Compound 517]
36 |  |  | 35.47 | 21 | CCOc1nc([C@H](F)CF)ccc1-c1ccc2cnc(CNC(=O)c3cc(C(F)F)c4c(c3)S(=O)(=O)[C@@H](F)COC4)cc2n1 [Compound 518]
37 |  |  | 28.12 | 22.6 | CCOc1nc([C@H](F)CF)ccc1-c1ccc2cnc(CNC(=O)c3cc(Cl)c4c(c3)S(=O)(=O)[C@@H](F)COC4)cc2n1 [Compound 519]
38 |  | 21.4 | 29.68 |  | [2H]C([2H])([2H])Oc1ccc(-c2ccc3cnc(CNC(=O)c4cc(Br)c5c(c4)S(=O)(=O)[C@@H](F)COC5)cc3n2)nc1C1CC1 [Compound 522]
39 |  | 16.2 | 26.20 |  | [2H]C([2H])([2H])Oc1ccc(-c2ccc3cnc(CNC(=O)c4cc(Cl)c5c(c4)S(=O)(=O)[C@@H](F)COC5)cc3n2)nc1C1CC1 [Compound 523]
